Source: PubChem BioAssay (NCI)
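Step 1: Grow cells in 96-well plates. Step 2: Expose to compound for 48 hours at 5 concentrations. Step 3: Interpolate endpoints linearly; if unreached, use highest concentration. TGI is the concentration that stops growth completely.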

Key:
Experiment in all cases: NCI tumour cell line growth inhibition, 48 h
[1] = tested on: NCI-H460 lung
[2] = tested on: SF-539 CNS
[3] = tested on: NCI-H522 lung
[4] = tested on: KM20L2 colon
[5] = tested on: UO-31 renal
[6] = tested on: A549 NSCLC
[7] = tested on: TK-10 renal
[8] = tested on: T-47D breast
[9] = tested on: HT29 colon
[10] = tested on: UACC-62 melanoma
[11] = tested on: CAKI-1 renal
[12] = tested on: SR leukemia
[13] = tested on: KM12 colon
[14] = tested on: HCT-116 colon
[15] = tested on: MCF7 breast
[16] = tested on: HOP-92 NSCLC
[17] = tested on: OVCAR-5 ovarian
[18] = tested on: SN12K1 renal
[19] = tested on: P388/ADR leukemia
[20] = tested on: HL-60(TB) leukemia
[21] = tested on: NCI-H226 lung
[22] = tested on: COLO 205 colon
[23] = tested on: IGROV1 ovarian
[24] = tested on: HCT-15 colon
[25] = tested on: MDA-MB-435
[26] = tested on: SF-295 CNS
[27] = tested on: MDA-N
[28] = tested on: SW-620 colon
[29] = tested on: MALME-3M melanoma
[30] = tested on: DMS 114 small cell lung
[31] = tested on: HS 578T breast
[32] = tested on: OVCAR-3 ovarian
[33] = tested on: MOLT-4 leukemia
[34] = tested on: M14 melanoma
[35] = tested on: M19-MEL melanoma
[36] = tested on: SK-MEL-2 melanoma
[37] = tested on: DU-145 prostate
[38] = tested on: DLD-1 colon
[39] = tested on: EKVX NSCLC
[40] = tested on: UACC-257 melanoma
[41] = tested on: K-562 leukemia
[42] = tested on: SK-MEL-28 melanoma
[43] = tested on: MDA-MB-231 breast
[44] = tested on: XF 498 CNS
[45] = tested on: A498 renal
[46] = tested on: SK-MEL-5 melanoma
[47] = tested on: SN12C renal
[48] = tested on: SNB-78 CNS
[49] = tested on: OVCAR-4 ovarian
[50] = tested on: LOX IMVI melanoma
[51] = tested on: CCRF-CEM leukemia
[52] = tested on: P388 leukemia
[53] = tested on: OVCAR-8 ovarian
[54] = tested on: HCC-2998 colon
[55] = tested on: NCI/ADR-RES ovarian
[56] = tested on: SK-OV-3 ovarian
[57] = tested on: HOP-62 NSCLC
[58] = tested on: U251 CNS
[59] = tested on: NCI-H23 lung
[60] = tested on: BT-549 breast
[61] = tested on: LXFL 529 NSCLC
[62] = tested on: RPMI-8226 leukemia
[63] = tested on: PC-3 prostate
[64] = tested on: SNB-75 CNS
[65] = tested on: 786-0 renal
[66] = tested on: ACHN renal
[67] = tested on: HOP-18 NSCLC
[68] = tested on: SF-268 CNS
[69] = tested on: SNB-19 CNS
[70] = tested on: DMS 273 small cell lung
[71] = tested on: RXF 393 renal

SMILES: O=C(/C=C/c1ccccc1)CCN1CCOCC1
- TGI [1]: 35.8 µM
- TGI [2]: 25 µM
- TGI [3]: 8.13 µM
- TGI [4]: 31.2 µM
- TGI [5]: 26.6 µM
- TGI [6]: 56.8 µM
- TGI [7]: 26.7 µM
- TGI [8]: 44 µM
- TGI [9]: 32.8 µM
- TGI [10]: 31.1 µM
- TGI [11]: 16.4 µM
- TGI [12]: 53.3 µM
- TGI [13]: 18.6 µM
- TGI [14]: 28 µM
- TGI [15]: 24.1 µM
- TGI [16]: 38.1 µM
- TGI [17]: 27.1 µM
- TGI [18]: 31 µM
- TGI [19]: 7.76 µM
- TGI [20]: 16.4 µM
- TGI [21]: 51.6 µM
- TGI [22]: 20 µM
- TGI [23]: 27.1 µM
- TGI [24]: 24.4 µM
- TGI [25]: 30.9 µM
- TGI [26]: 38.8 µM
- TGI [27]: 30.1 µM
- TGI [28]: 16.5 µM
- TGI [29]: 36.4 µM
- TGI [30]: 23.9 µM
- TGI [31]: > 88.5 µM
- TGI [32]: 33.3 µM
- TGI [33]: 29.7 µM
- TGI [34]: 29 µM
- TGI [35]: 28.3 µM
- TGI [36]: 44.5 µM
- TGI [37]: 40.4 µM
- TGI [38]: 22.1 µM
- TGI [39]: 30.6 µM
- TGI [40]: 21.3 µM
- TGI [41]: 12.6 µM
- TGI [42]: 27.3 µM
- TGI [43]: 35.1 µM
- TGI [44]: 29.1 µM
- TGI [45]: 44 µM
- TGI [46]: 33.5 µM
- TGI [47]: 35.9 µM
- TGI [48]: 47.3 µM
- TGI [49]: 42.5 µM
- TGI [50]: 24.8 µM
- TGI [51]: 12.1 µM
- TGI [52]: > 27.2 µM
- TGI [53]: 38.5 µM
- TGI [54]: 38 µM
- TGI [55]: 55.5 µM
- TGI [56]: 51.6 µM
- TGI [57]: 64 µM
- TGI [58]: 31.7 µM
- TGI [59]: 31.8 µM
- TGI [60]: 17.9 µM
- TGI [61]: 8.43 µM
- TGI [62]: 7.54 µM
- TGI [63]: 31.5 µM
- TGI [64]: 51.6 µM
- TGI [65]: 18.8 µM
- TGI [66]: 28.6 µM
- TGI [67]: 32.2 µM
- TGI [68]: 38.3 µM
- TGI [69]: 39.9 µM
- TGI [70]: 35.9 µM
- TGI [71]: 26.1 µM
